Test results taken from patent US20230035403A1, “Method For Determining Responsiveness To Prostate Cancer Treatment” (Janssen Biotech, Inc., priority 2020, published 2023).

Tested on: autologous CD3+ Pan-T cells (CD8+ and CD4+ T cells) with peptide-pulsed CD1c+ Dendritic Cells
Assay: Exogenous autologous normal donor restimulation assay (in vitro immunogenicity)
Format: cell-based, human
Conditions: Table 25, pool of overlapping 15-mer peptides, maximum across normal donors; for Maximum Fold Change Over Background CD4+ cells: TNFα+IFNγ+ CD4+ T cells; for Maximum Fold Change Over Background CD4+ cells / Maximum Fold Change Over Background CD8+ cells: over negative control; for Maximum Fold Change Over Background CD8+ cells: TNFα+IFNγ+ CD8+ T cells
Protocol: CD1c+ Dendritic Cells (DC) isolated from human normal PBMCs were thawed using media (IMDM (Gibco) supplemented with glutamine, HEPES, 5% human serum (Sigma), and 1× Pen-Strep). DC cells were resuspended in media supplemented with IL-4 (Peprotech, 80 ng/mL) and GM-CSF (Gibco, 80 ng/mL), plated in 6 well microplates, and rested overnight at 37° C. (5% CO2). The following day, DC cells were counted and plated in a 96 well round bottom microplate at a concentration of 30,000 viable cells per well. Lyophilized peptides (15-mer overlapping peptides) were solubilized in 100% DMSO and pooled by neoantigen to between 5 mg/mL and 20 mg/mL. Neoantigen peptides pools were added to DCs for a final concentration of 2.5 μg/mL to 10 μg/mL and rested for 2 hours at 37° C. (5% CO2). CEF Peptide Pool “Plus” (Cellular Technologies, Ltd.) was utilized as a positive control and DMSO at the same final concentration as the experimental peptides was utilized as a negative control. After 2 hours, DC cells were irradiated with 50 gray of ionizing radiation. Autologous CD3+ Pan-T cells isolated from human normal PBMCs were thawed using media. Following irradiation, autologous Pan-T cells were added to the irradiated DCs at 300,000 viable cells per well. Human IL-15 (Peprotech) was added to all wells at final concentration of 10 ng/mL.
Plates were incubated at 37° C. (5% CO2) for a total of 12 days. Media was refreshed every 2-3 days with IL-15 (10 ng/mL final concentration) and IL-2 (R&D systems, 10 IU/mL final concentration). On day 11 cells were re-stimulated with identical experimental peptide pools or controls, at same concentration as peptide stimulation on Day 1. Protein Inhibitor Cocktail (eBioscience) was added to every well and plate was incubated overnight at 37° C. (5% CO2).
On day 12, cells were stained for intracellular flow cytometry analysis. The cells were washed with PBS and stained with Live/Dead Fixable Aqua Dead Cell stain (Thermo-Fisher). Following the live/dead stain, cells were blocked using Biotin-Free Fc Receptor Blocker (Accurate Chemical & Scientific Corp). Extracellular cellular flow panel (1 μL/antibody per well in 50 μL) consisted of CD3 PerCP-Cy5.5 (Biolegend), CD4 BV421 (Biolegend), and CD8 APC-Cy7 (Biolegend). After extracellular staining, cells were fixed using Foxp3/Transcription Factor Staining Buffer Set (eBioscience) and stained for intracellular proteins (1:50 dilution) using TNFα FITC (R&D Systems) and IFNγ BV785 (Biolegend). Cells were washed and resuspended in stain buffer and analyzed using a BD Celesta flow cytometer.
Flow cytometry cell staining analysis was completed using FlowJo v10. Cells were gated on live, singlet, CD3+ cells. The CD8+ and CD4+ T cells were analyzed for TNFα/IFNγ expression and the frequency of double positive TNFα/IFNγ CD8+ and the frequency of double positive TNFα/IFNγ CD4+ T cells were recorded. Responses were assessed to be positive when the frequency of double positive TNFα/IFNγ CD8+ or TNFα/IFNγ CD4+ T cells due to stimulation with an experimental peptide pool was increased greater than or equal to 3-fold over the DMSO only negative control for that donor and at least 0.01%.
(§1) Overlapping 15-mer peptides were designed to span each neoantigen incorporated into NeoGAd20 and NeoMVA to assess their ability to activate T cells using the exogenous autologous normal donor restimulation assay described in Example 1 as pools using TNFα and IFNγ production by CD8^+ and CD4^+ T cells as a readout.
as §1, with “Immunogenicity of various additional identified neoantigens was assessed. Overlapping” for “Overlapping”, “similarly to what was done in Example 11” for “incorporated into NeoGAd20 and NeoMVA”

Row | Sequence | Maximum Fold Change Over Background CD4+ cells | Maximum Fold Change Over Background CD8+ cells | Maximum Frequency of TNFα/IFNγ Double Positive CD4+ T cells | Maximum Frequency of TNFα/IFNγ Double Positive CD8+ T cells
1 | SLYHREKQLIAMDSAI [Neoantigen P22] | 18.16 | 1.56 | 0.075 | 0.025
2 | YEAGMTLGEKFRVGNCKHLKMTRP [Neoantigen P82] | 4.44 | 2.92 | 0.17 | 0.09
3 | YEAGMTLGGKILFFLFLLLPLSPFSLIF [Neoantigen P87] | 7.86 | 9.20 | 0.110 | 0.460
